Measurements reported in a melting point compilation (Tetko et al.; mined from patent text by program, amines drawn as free bases though some values may be those of a salt).

Row | SMILES | melting point
1 | COCCN(C)c1nccc(Oc2ccc(NC(=O)c3cc(F)cc(N4CCCCC4)c3)c3ccccc23)n1 | 81 to 82 °C
2 | CN1CC(CCN2CCN(c3ccc(F)cc3)CC2)OC1=O (configuration not stated) | 82 to 84 °C
3 | C[Si](C)(C)NC(=O)CC(=O)N[Si](C)(C)C | 72 to 76 °C
4 | CCCCCCCCCCCC(CC(=O)NC(CCCNC(=O)OCc1ccccc1)COC1CCCCO1)OCc1ccccc1 (configuration not stated) | 84 to 86 °C
5 | CCN(Cc1ccc(Cl)nc1)C(=C[N+](=O)[O-])N(C)C(=O)OCOC(=O)c1ccccc1 | 62 to 63 °C
6 | CNc1cc(Oc2nn(C)c(C(F)(F)F)c2Cl)ccc1C#N | 115 to 117 °C
7 | Cc1nc(C(O)C2CCc3c(C)c4ccccc4n3C2=O)c[nH]1 (configuration not stated) | 210 to 211 °C
8 | Cc1c(-c2cccnc2)n(Cc2ccc(C#N)cc2)c2ccccc12 | 127 to 129 °C
9 | O=C(O)[C@@H]1C[C@@H](c2ccccc2)CN1C(=O)c1ccccc1Br | 146 to 147 °C
10 | CC(C=CCC(C)(C)O)C1CCC2C3=CC=C4CC(O)CCC4(C)C3CCC21C (configuration not stated) | 198 to 200 °C
11 | COc1ccc(-c2nc(SCC=O)sc2-c2ccc(OC)cc2)cc1 | 75 to 76 °C
12 | COc1ccc(Cn2c(=O)ccc3cnc(Cl)cc32)cc1Cl | 208 to 210 °C
13 | Cc1oc(-c2ccccc2)nc1CCOc1ccc(CC(C)(C)C(=O)NS(C)(=O)=O)cc1 | 112 to 113 °C
14 | COc1ccc(-c2cc(C(F)(F)F)n(C)c2-c2ccc(OC)cc2)cc1 | 125 to 126 °C
15 | C=CCN1CC(C)N(C(c2cccc(O)c2)c2ccc(C(=O)N(CC)CC)s2)CC1C (configuration not stated) | 113 to 116 °C
16 | CCCCCCCCCCCCOc1cc(O)c(C(=O)c2ccccc2)c(OCCCCCCCCCCCC)c1 | 37 to 38 °C
17 | NC(=O)c1c(Cl)c(-c2ccccc2)n2c1CN(S(=O)(=O)c1cccc(C(F)(F)F)c1)CC2 | 158 to 159 °C
18 | CCCCCCCCCCCCCCCC1CCCC(=O)C1 (configuration not stated) | 41 °C
19 | COc1ccccc1C(O)(c1ccc(C(C)C)cc1)C(C)C (configuration not stated) | 85 to 86 °C
20 | O=C(NCc1ccccc1)NC(Cc1ccccc1)C(=O)O (configuration not stated) | 115 to 117 °C
21 | c1c(N2CCCC2)nc(NC23CC4CC(CC(C4)C2)C3)nc1N1CCNCC1 | 160 to 164 °C
22 | Cc1cccc2c1nc(-c1c(F)cccc1F)n2Cc1c(Cl)cccc1Cl | 202 to 203 °C
23 | NCCCCCCCCO | 48 to 53 °C
24 | CCCC/C(=C\C=C\C(=O)O)c1cccc(OC)c1 | 77.5 to 78.5 °C
25 | C=CC(=O)Oc1c(Br)c(Br)c(Br)c(Br)c1OC(=O)C=C | 135 to 137 °C
26 | Cn1c(=O)oc2cc(N3C[C@H](C(N)=O)OC3=O)ccc21 | > 260 °C

Row | SMILES | melting point
27 | O=C(CCl)c1ccc2c(c1)CCO2 | 85 to 87 °C
28 | N#Cc1c(N2CCN(C(=O)c3ccco3)CC2)c2cc(F)ccc2n(Cc2ccccc2)c1=O | 209 °C
29 | COc1ccnc(CSc2nc3c(C)c(OC(F)F)c(C)cc3[nH]2)c1 | 168 to 169 °C
30 | N#Cc1c(O)cccc1[N+](=O)[O-] | 200 °C
31 | Cc1cc(C=NO)cc(Oc2nc(Cl)nc(Cl)c2C(C)C)c1 | 185 to 187 °C
32 | C=CCn1c(=O)n(CCN2CCN(c3ccccc3OC)CC2)c(=O)c2cscc21 | 131 to 132 °C
33 | CNC(C)CN1CCc2c(c(=O)oc3cc(OC)ccc23)C1 (configuration not stated) | 109 to 111 °C
34 | O=C(CCC1CCCCCCCCCCC1=O)C1=C(O)CSC1=O (configuration not stated) | 93 to 95 °C
35 | O=c1c2c(cc3n1CCCS3(=O)=O)CCCC2 | 232 to 233 °C
36 | CCCCCCCNC(=O)N(C)c1ccc(C)c(-c2ccc(C=CC(=O)O)cc2)c1 | 159 °C
37 | COc1c(Br)csc1C(=O)O | 191 to 192 °C
38 | Cc1cc(C)cc(-c2nc(NC(=O)Cc3ccccc3)sc2-c2ccncc2)c1 | 226 to 229 °C
39 | O=C(O)C(O)=CC(=O)c1cn(Cc2ccccc2)cc(Cc2ccccc2)c1=O | 140 to 142 °C
40 | O=C(c1ccccc1)N1CCC(CSc2ccccc2)CC1 | 76 to 79 °C
41 | O=C1c2ccc(CCCCc3ccccc3)cc2CCN1O | 82 to 83 °C
42 | NCCCc1ccc(CCCN)nc1 | 116 to 119 °C
43 | CCCc1c(OCCCCc2ccc3c(Cl)c(OC)c(OC)c(Cl)c3c2)ccc(C(=O)O)c1O | 181 to 182 °C
44 | CC1CC(=O)c2cccc(C#N)c21 (configuration not stated) | 109 to 111 °C
45 | CCCCCCCCCCCCOc1cc(CC#N)c(SC)cc1CC#N | 100 to 102 °C
46 | CCN(CC)Cc1ccc(N=C2NCCN2)c(Cl)c1 | 113 to 115 °C
47 | O=C(O)c1cccc([N+](=O)[O-])c1NCc1ccccc1Cl | 164 °C
48 | CCCC1=C(Cl)C(=O)c2ccccc2C1=O | 71 to 73 °C
49 | COC(=O)[C@@H]1CCCN1S(=O)(=O)c1ccc(Cl)c(COc2cccc3c(C)cc(C)nc23)c1Cl | 138 °C
50 | COC(=O)c1cc([N+](=O)[O-])c[nH]1 | 196 to 197 °C
51 | Cc1c(CC(=O)O)c2ccccc2n1-c1cc(Cl)nc(Cl)n1 | 205 to 207 °C
52 | CC(C)[Si](Oc1cc(C=O)c2c(c1)C1(C)CCN(C)C1N2C)(C(C)C)C(C)C (configuration not stated) | 42 to 45 °C

Row | SMILES | melting point
53 | O=C(Nc1ccc(C(=O)N2Cc3cccn3Cc3ccccc32)cc1)c1cc(Cl)ccc1Cl | 218 to 220 °C
54 | CN1C(=O)N(C[C@@H]2COC(=O)[C@@H]2CC2CCCC2)C(=O)C1(C)C (racemic) | 71 to 74 °C
55 | O=C(O)[C@@H](Cc1ccccc1)Oc1c(Br)cc(-c2c3ccccc3c(C(F)(F)F)c3sc4ccccc4c23)cc1Br | 109 to 143 °C
56 | CC(C)(C(=O)O)c1cccc(OCc2ccccc2)c1 | 114 to 116 °C
57 | O=C(NCN1CCCCC1)Nc1ccc(-c2cnc(CSCCOc3ccccc3)o2)cc1 | 84 to 87 °C
58 | [N-]=[N+]=C1C(=O)Nc2ccc(F)cc21 | 209 to 210 °C
59 | O=C(O)[C@H](Cc1cccc(C(F)(F)F)c1)[C@@H](O)c1ccc(F)cc1 (racemic) | 116 to 118 °C
60 | CC(C)c1ccc(S(=O)(=O)n2c(COC(C)(C)C(=O)O)cc3cc(Cl)ccc32)cc1 | 60 °C
61 | C=CCNC(=O)N1CC(OCc2ccc(C(F)(F)F)cc2)C1 | 120 °C
62 | O=C(O)c1cc(F)c(F)c(F)n1 | 81 to 82 °C
63 | Cn1cnc(COc2nn3c(-c4ccccc4F)nnc3cc2-c2ccsc2)n1 | 216 to 218 °C
64 | CC1=C2CCN(CCC(N)=O)CC2c2ccccc21 (configuration not stated) | 169 to 170 °C
65 | NC(=O)c1ccc(N)nc1F | 236 to 237 °C
66 | COc1cc(N)c(Cl)cc1C(=O)NCC1CCN(CCCCCCSc2ccccc2)CC1 | 68 to 70 °C
67 | COC(=O)c1nc2sc(CC(C)C)c(C)c2c(=O)[nH]1 | 173 to 175 °C
68 | COc1ccc(CCNC(=O)CC(NC(=O)CCNC(=O)c2ccc(C(=N)N)cc2)C(=O)O)cc1 (configuration not stated) | 217 °C
69 | Oc1ccc(-c2nn(C3CCCCC3)c3c(Cl)cccc23)cc1 | 176 to 177 °C
70 | O=[N+]([O-])c1cccc2c1S(=O)(=O)C=C2 | 195 to 197 °C
71 | CC(=O)OC1CSC(Oc2cncc(-c3cncnc3)c2)C(OC(C)=O)C1OC(C)=O (configuration not stated) | 213 to 217 °C
72 | CCCCC(Cc1ccc(OCCNC(=O)c2ccc(-c3cccc(CN(C)C)c3)cc2)cc1)C(=O)O (configuration not stated) | 95 to 97 °C
73 | COc1ccc(C=CC(=O)CC(=O)C=Cc2ccc(OC)cc2)cc1 | 154 to 155 °C
74 | COc1ccc(-c2cc3cc(F)c(F)cc3[nH]2)cc1NS(=O)(=O)c1cccc(N)c1 | 235 to 238 °C
75 | COC(=O)c1cc(OC)c(C#N)c(OC)c1 | 151 to 153 °C
76 | CC(C)(C)c1cc(C(C)(C)C)c(O)c(S(=O)(=O)Nc2ccc([N+](=O)[O-])cc2Cl)c1 | 158 to 161 °C
77 | COC(C)(CC(=O)NC12CC3CC(CC(C3)C1)C2)OC | 140 °C
78 | CS(=O)(=O)Nc1cc(-c2nc3ccccn3c2Br)c(F)cc1F | 202 °C

Row | SMILES | melting point
79 | Cc1cnc(NCCc2ccccn2)c(=O)n1NC(=O)CCc1cc(C(F)(F)F)ccc1F | 181 to 184 °C
80 | CC(C)(C)OC(=O)NC(CC(O)CNC(Cc1ccccc1)C(O)CNC(=O)OCc1ccccc1)c1ccccc1 (configuration not stated) | 120 to 121 °C
81 | COc1cc(=O)n(-c2cccc(C(F)(F)F)c2)nc1C(=O)N(C)OC | 127 to 129 °C
82 | O=C1CCc2cc3ccccc3n2C1 | 126 to 128 °C
83 | C[C@H](NC(=O)OC(C)(C)C)C(=O)C=[N+]=[N-] | 99 to 102 °C
84 | CCCN(CCCNc1ncc(Cc2ccc(F)cc2)c(=O)[nH]1)c1ccccn1 | 107 to 109 °C
85 | COC(=O)c1ccc(CN2CCC(N)CC2)nc1 | 173 to 175 °C
86 | Cc1ncnc(-c2ccncc2)n1 | 99 to 102 °C
87 | COc1cccc2c1CCC(O)(C(C)=O)C2 (configuration not stated) | 63 to 63.5 °C
88 | Cc1c(SCCCSCCn2c([N+](=O)[O-])cnc2C)ccnc1CNc1cnc2ccccc2c1 | 133 to 135 °C
89 | CC(=O)c1c(NC(=O)C(C)(C)C)cccc1C(F)(F)F | 142 °C
90 | CCc1ccc2c(O)c(C(=O)O)cnc2c1 | 175 to 178 °C
91 | Oc1ccccc1-c1ccc2nonc2c1 | 166 to 169 °C
92 | Cn1c(=O)[n+]([O-])c(-c2ccccc2)c2cc(Cl)ccc21 | 254 °C
93 | CC(C)C1(C)NC(c2ncccc2CO)=NC1=O (configuration not stated) | 145 to 149 °C
94 | Cc1cccc(C(=O)c2ccc(OCCOc3ccc(C(=O)c4cccc(C)c4)cc3)cc2)c1 | 164 to 167 °C
95 | CON=Cc1ccc2c(c1)ncn2-c1cccc(-c2nccs2)c1 | 154 to 160 °C
96 | COc1ccc(N(C)c2nccc(-c3cccnc3)n2)cc1 | 88 to 90 °C
97 | CCCCc1oc2ccc([N+](=O)[O-])cc2c1C(=O)c1ccc(OCCCO)cc1 | 76 to 80 °C
98 | COC(=O)C1(C)Oc2ccc(Cl)cc2C(C)(C)O1 (configuration not stated) | 89 °C
99 | Cc1cc(C)n(-c2nc(Nc3cccc(Cl)c3)c3ccccc3n2)n1 | 259 to 262 °C
100 | Cc1cc(C2(C(F)(F)F)CC(c3ccc(S(C)=O)cc3)=NO2)ccc1N (configuration not stated) | 68.5 to 77 °C
101 | COc1cc2c(cc1-c1cccnc1)-c1c(-c3cccs3)c3c(n1CC2)C(=O)N(C(C)C)CCN(C(=O)C(C)C)C3 | 178 to 183 °C
102 | COc1ccc(C=C2N=C(c3ccccc3I)OC2=O)cc1OC | 200 to 202 °C
